Measured values reported in patent US20140205660A1, “Abscisic acid against cancer” (priority 2013, published 2014).
Read-outs that look alike come from different tables or passages of the source.

What was measured:
leaf discs of V. Faba = settings: cited from earlier work
[1] = 50 mg/ml, Sigma-Aldrich material; cited from earlier work
[2] = can rearrange to PA; cited from earlier work
[3] = tested on: HELA, DU145, HCT116 AND K562; settings: cited from earlier work
DU-145 (prostate cancer) = settings: DU-145 tumor cells; cited from earlier work
cancer cell lines = settings: HELA, DU 145, HCT115, K562, C1498, HL-60, SMMC-7721, Tca8113; cited from earlier work
[4] = tested on: C1498 transplanted tumor with myeloid leukemia; settings: groups of 10 mice, 7 days treatment, cited from earlier work
cancer = settings: 62 human cases, digestive ABA plus six vaccines, inconclusive cases not considered; cited from earlier work
[5] = tested on: C1498 transplanted tumor with myeloid leukemia; assay: Survival of C57BL/6J mice with C1498 transplanted tumor (Livingston); assay type: in vivo; settings: for survival: oral
From the text: For determination of cancer survival rate, she used C57BL/6J mice and C1498 transplanted tumor with myeloid leukemia purchased from the Jackson Laboratory in Maine. This type of cancer was lethal in mice in 10-15 days. ABA furnished by Hoffmann-Laroche was suspended in saline and administered as suspension. Groups of 10 mice were used for treatment for a total of 7 days.

Lemna gibba G1 = settings: cited from earlier work
stomata opening = settings: 10 mcM ABA extracellular, cited from earlier work
TCA8113 cells = settings: cited from earlier work
nuclear protein Ki67 = settings: proliferating tumor cells; cited from earlier work
[6] = tested on: HL-60 (promyelocytic leukemia); settings: HL-60 tumor cells; cited from earlier work

CC1=CC(=O)CC(C)(C)C1(O)/C=C/C(C)=C\C(=O)O (racemic) [racemic ABA, reference compound]
half-life (leaf discs of V. Faba): 30 to 32 h

CC1=CC(=O)CC(C)(C)C1(O)/C=C/C(C)=C\C(=O)O (racemic) [(+/−)-Abscisic acid]
appearance of solution in ethanol [1]: clear to slightly hazy

CC(C=CC1(O)C(C)=CC(=O)CC1(C)CO)=CC(=O)O (centres unmarked) [Metabolite C, 6′-hydroxy methyl ABA]
stability [2]: extremely unstable

[S-(Z,E)]-5-(1-Hydroxy-2,6,6-trimethyl-4-oxo-2-cyclohexen-1-yl)-3-methyl-2,4-pentadienoic acid [ABA]
effects in four human cancer cell lines [3]: caused a tumor growth reduction, reduced cell proliferation rate, changed cell cycle progression, and produced induction of apoptosis | changes in morphology of cancer cells (DU-145 (prostate cancer)): growth in poor condition and nuclear pycnosis | effect against cancer cell lines (cancer cell lines): severe effect | rate of survival at the end of 14 days ([4]; ABA 1 mg/kg i.p.): 9 survivors | rate of survival at the end of 14 days ([4]; ABA 10 mg/kg i.p.): 10 survivors | rate of survival at the end of 14 days ([4]; ABA 10 mg/kg oral): 6 survivors | rate of survival at the end of 14 days ([4]; ABA 100 mg/kg oral): 9 survivors | success rate (cancer): around 82% | survivors ([5]; group II, 1 mg/kg): 90% | survival ([5]; 10 mg/kg): 60% | survival ([5]; 100 mg/kg): 90% | potential increase in average (Lemna gibba G1; 10-100 mcm ABA): 85 mV | EPD after ABA treatment (Lemna gibba G1; after 15 hours ABA treatment, from −109 mV): −194 mV | inhibition of stomata opening (stomata opening; pH 6.15): 98% | inhibition of stomata opening (stomata opening; pH 8.0): 57% | Involucrin protein expression (TCA8113 cells; differentiation of TCA8113 affected by ABA): expressed | retinoic acid receptor beta (RARBETA) expression (TCA8113 cells; under treatment with ABA): expressed and not silenced | half-life (leaf discs of V. Faba): 6 to 8 h | nuclear protein Ki67 expression (nuclear protein Ki67): reduced | changes in morphology of cancer cells [6]: absence of tumor cell nuclear membrane microvillus and presentation of typical apoptosis characteristics
